Reference: US7611713B2 (priority 1999, dated 2009)
No end group written: not given here.

Key:
B*0702 = B*0702 (Homo sapiens, UniProt P01889); experiment: biochemical; type: binding
B*5301 = B*5301 (Homo sapiens, UniProt P01889, A329T/A93T/A95T/C349S/D201E/D98Y/E176V/E187L/E204Q/E69T/G107R/I218V/K202T/L105A/L119I/N104I/Q94N/R106L/R155S/R180L/S101N/S121R/S35A/S48A/T118I/V127L/V306I/V36M/Y140S/Y91F); experiment: HLA class I peptide binding assay, B*5301
B*3501 = B*3501 (Homo sapiens, UniProt P01889, A329T/A93T/A95T/C349S/D201E/D98Y/E176V/E187L/E204Q/E69T/I218V/K202T/L119I/Q94N/R155S/R180L/S121R/S35A/S48A/T118I/V127L/V306I/V36M/Y140S/Y91F); experiment: HLA class I peptide binding assay, B*3501
B*5401 = B*5401 (Homo sapiens, UniProt P01889, A329T/C349S/D138N/D201E/E176V/E187T/E204Q/E69G/I76V/K202T/L119W/R155S/R180L/S121T/S35A/S48A/V127L/V306I/V36M/Y140L); experiment: biochemical; type: binding
T helper lymphocytes = conditions: individuals regardless of HLA type; cited from earlier work

Substance	IC50 (B*0702)	IC50 (B*5301)	IC50 (B*3501)	IC50 (B*5401)	stimulation of T helper lymphocyte response (T helper lymphocytes)
FPHCLAFSA [Peptide 2513]	3670 nM	137 nM	6.5 nM	0.6 nM	–
FPHCLAFSI [Peptide 2512]	675 nM	3.8 nM	–	1 nM	–
FPIPSSWAF [Peptide 2506]	24 nM	–	–	–	–
FPHCLAFSL [Peptide 2510]	74 nM	15 nM	–	–	–
FPFCLAFSY [Peptide 2511]	–	4.8 nM	6.5 nM	5.1 nM	–
aKXVWANTLKAAa	–	–	–	–	stimulate the response of T helper lymphocytes from most individuals
FPHCLAFAL [Peptide 2509]	25 nM	5 nM	–	24 nM	–
